Laboratory results published in patent US20250339569A1, “CARBONIC ANHYDRASE IX LIGANDS” (priority 2021, published 2025).
Like-named read-outs stand apart in the source and are kept apart here. Starred links: 1 amine or outer side, 2 acyl side, 3 side chain; linkers in the order of their positions; H or OH if unused. Positions of bridges follow the written chain, without caps; N, C: chain ends. Non-standard residues stand in square brackets, D forms with d. Residues, ends and D or L forms follow the SMILES beside them. ξ: configuration not given here. *: point of attachment. Phe(3-NHCO(CH2)3SO2NH2) = N[C@@H](Cc1cccc(NC(=O)CCCS(N)(=O)=O)c1)C(=O)O; NH(1-deoxy-D-glucityl) = OC[C@@H](O)[C@@H](O)[C@H](O)[C@@H](O)CN*; DOTA = O=C(O)CN1CCN(CC(=O)O)CCN(CC(=O)*)CCN(CC(=O)O)CC1; ξTrp(1-Me) = Cn1cc(CC(N)C(=O)O)c2ccccc21; Phe(4-NH2) = Nc1ccc(C[C@H](N)C(=O)O)cc1; mXylylene = c1cc(C[*:1])cc(C[*:2])c1; X14 = O=C([C@H]1CCCN([*:1])C1)[*:2]; X2 = O=C(CN1CCC(N[*:1])CC1)[*:2]; X1 = O=C(CN1CCN([*:1])CC1)[*:2]; X27 = NS(=O)(=O)c1ccc(C(=O)*)s1; X31 = NS(=O)(=O)c1coc(C(=O)*)c1; NMeD = CN[C@@H](CC(=O)O)C(=O)O; Ac5c = NC1(C(=O)O)CCCC1; Dap = NC[C@H](N)C(=O)O; AEEA = NCCOCCOCC(=O)O

Columns and labels:
[1] = biological target: T1, human carbonic anhydrase IX (hCAIX-Fc) (Homo sapiens, UniProt Q16790); assay: Surface plasmon resonance assay with hCAIX-Fc; type: binding; details: 25° C.; for t1/2 category (activity): SPR dissociation half-life, hCAIX-Fc; for Kd: SPR, hCAIX-Fc captured, read-out: pKD category (activity) (converted)
T1 construct: purchased SinoBliological (Sino Biological) 10107-H02H
Procedure: Surface plasmon resonance (SPR) studies were performed using a Biacore™ T200 SPR system (GE Healthcare Life Sciences). Briefly, polarized light is directed towards a gold-labeled sensor surface, and minimum intensity reflected light is detected. The angle of reflected light changes as molecules bind and dissociate.
Fc-fusion protein of human carbonic anhydrase IX (hCAIX-Fc, SinoBliological, Cat #10107-H02H) was captured on a Fc-capture chip (Biacore™ CM5 sensor chip coated with ˜300 RU of an Fc-binding peptide). Recombinant carbonic anydrase was diluted in Running Buffer (PBST, 0.1% DMSO) to a final concentration 100 or 200 nM and than flushed over the Fc-capture chip to immobilized ˜1000 RUs.
Stock solutions of test compounds were prepared by dissolving each compound in DMSO. DMSO stock solution were diluted 1:1000 in Running Buffer without DMSO. Further sequencial dilutions were made with Running Buffer containing 0.1% DMSO. SPR binding analyses were performed in Single Cycle Kinetic (SCK) mode at 25° C. Flow cell coated with the Fc-binding peptide only served as reference flowcell. After each SCK run, carbonic andydrase IX was removed with 10 mM glycine buffer, pH 1.5.
In between every three SCK measurements, a blank run with Running Buffer instead of test compound was included to correct for baseline drifts (double blanking methods).
Table 11 describes the protocol steps for Fc-fusion target capturing and assessment of the binding kinetics.
For each test compound, SPR raw data in the form of resonance units (RU) were plotted as sensorgrams using the Biacore™ T200 control software. The signal from the blank sensorgram was subtracted from that of the test compound sensorgram (blank corrected). The blank corrected sensorgram was corrected for baseline drift by subtracting the sensorgram of a SCK run without the test compound (running buffer only). The association rate (kon), dissociation rate (koff), dissociation constant (KD), and t1/2 were calculated from Blank-normalized SPR data using the 1:1 Langmuir binding model from the Biacore™ T200 evaluation software. Raw data and fit results were imported as text files in IDBS. The pKD value (negative decadic logarithm of dissociation constant) was calculated in the IDBS excel template.

[2] = biological target: T2, CAIX-expressing human HT-29 colorectal cancer cells (Homo sapiens, UniProt Q16790); assay: FACS binding assay (IC50 determination, competition with tracer 3BP-2776 or 3BP-4149); details: 4° C., 1 hour, read-out: pIC50 category (activity) (converted)
T2 construct: CAIX-expressing human HT-29 colorectal cancer cells; host or cells: HT-29 human colorectal cancer cells
How it was run: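 HT-29 cells in FACS buffer (PBS, 1% FCS) at 500.000 cells/ml were exposed to compounds competing with a labelled tracer, with biotinylated compounds detected by 1 μg/mL APC-streptavidin for 30 min on ice. APC/Cy5 median fluorescence was read by flow cytometry and IC50 derived by 4PL fit.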

[3] = FACS binding assay, HT-29 cells, competition with tracer 3BP-4149 (3 nM, Cy5-labeled)
[4] = FACS binding assay, HT-29 cells, competition with tracer 3BP-2776 (10 nM, biotin-labeled)
[5] = FACS competition on HT-29 cells, Tracer ID 3BP-2776 (10 nM, biotin-labeled)

Structure (SMILES) | t1/2 category (activity) [1] | Kd [1] | IC50 [2, 3] | IC50 [2, 4] | IC50 [2, 5]
CC(C)C[C@@H]1NC(=O)[C@H](Cc2ccc(NC(=O)c3ccc(S(N)(=O)=O)s3)cc2)NC(=O)[C@H](CC(=O)O)NC(=O)[C@H]2CCCN2C(=O)[C@H](CCC(=O)O)NC(=O)[C@@H](NC(=O)[C@H](Cc2ccc(O)cc2)NC(=O)CN2CCN(C(=O)CN3CCN(CC(=O)O)CCN(CC(=O)O)CCN(CC(=O)O)CC3)CC2)CSCc2cccc(c2)CSC[C@@H](C(N)=O)NC(=O)[C@H](CO)NC(=O)[C@H](Cc2c[nH]c3ccccc23)NC(=O)[C@H]([C@@H](C)O)NC1=O [3BP-4457] ({DOTA}-[X1]YCE[dP]D[Phe(4-NH2)](X27)LTWSC-NH2; linker 3-12 via mXylylene) | B (t1/2 between 5.1 and 15.0 minutes) | < 0.01 µM | < 0.01 µM |  | 
CC(C)C[C@@H]1NC(=O)[C@H](Cc2cccc(NC(=O)CCCS(N)(=O)=O)c2)NC(=O)[C@H](CC(=O)O)NC(=O)[C@H]2CCCN2C(=O)[C@H](CCC(=O)O)NC(=O)[C@@H](NC(=O)[C@H](Cc2ccc(O)cc2)NC(=O)[C@H]2CCCN(C(=O)CN3CCN(CC(=O)O)CCN(CC(=O)O)CCN(CC(=O)O)CC3)C2)CSCc2cccc(c2)CSC[C@@H](C(N)=O)NC(=O)[C@H](CO)NC(=O)[C@H](Cc2c[nH]c3ccccc23)NC(=O)[C@H]([C@@H](C)O)NC1=O [3BP-4454] ({DOTA}-[X14]YCE[dP]D[Phe(3-NHCO(CH2)3SO2NH2)]LTWSC-NH2; linker 3-12 via mXylylene) | A (t1/2>15.0 minutes) | < 0.01 µM | 0.01 to 0.0794 µM |  | 
CC(C)C[C@@H]1NC(=O)[C@H](Cc2c[nH]c3ccccc23)NC(=O)[C@H](CC(=O)O)NC(=O)[C@@H](CCC(=O)NC[C@H](O)[C@@H](O)[C@H](O)[C@H](O)CO)NC(=O)[C@H](CCC(=O)O)NC(=O)[C@@H](NC(=O)[C@H](Cc2ccc(O)cc2)NC(=O)[C@@H](NC(=O)CN2CCC(NC(=O)CN3CCN(CC(=O)O)CCN(CC(=O)O)CCN(CC(=O)O)CC3)CC2)C(C)C)CSCc2cccc(c2)CSC[C@@H](C(N)=O)NC(=O)[C@H](CO)NC(=O)[C@H](Cc2c[nH]c3ccccc23)NC(=O)[C@H]([C@@H](C)O)NC1=O [3BP-4119] ({DOTA}-[X2]VYCE[dE](NH(1-deoxy-D-glucityl))DWLTWSC-NH2; linker 4-13 via mXylylene) |  | < 0.01 µM |  | < 0.01 µM | 
CC(C)C[C@@H]1NC(=O)[C@H](Cc2c[nH]c3ccccc23)NC(=O)[C@H](CC(=O)O)N(C)C(=O)[C@H]2CCCN2C(=O)[C@H](CCC(=O)O)NC(=O)[C@@H](NC(=O)[C@H](Cc2ccc(O)cc2)NC(=O)[C@@H](NC(=O)CN2CCC(NC(=O)CN3CCN(CC(=O)O)CCN(CC(=O)O)CCN(CC(=O)O)CC3)CC2)C(C)C)CSCc2cccc(c2)CSC[C@@H](C(N)=O)NC(=O)[C@H](CO)NC(=O)[C@H](Cc2c[nH]c3ccccc23)NC(=O)[C@H]([C@@H](C)O)NC1=O [3BP-4107] ({DOTA}-[X2]VYCE[dP][NMeD]WLTWSC-NH2; linker 4-13 via mXylylene) | A (t1/2>15.0 minutes) | < 0.01 µM |  | < 0.01 µM | 
CC(C)C[C@@H]1NC(=O)[C@H](Cc2cccc(NC(=O)CCCS(N)(=O)=O)c2)NC(=O)[C@H](CC(=O)O)NC(=O)[C@H]2CCCN2C(=O)[C@H](CCC(=O)O)NC(=O)[C@@H]2CSCc3cccc(c3)CSC[C@@H](C(N)=O)NC(=O)[C@H](CNC(=O)C[C@H](NC(=O)CN3CCN(CC(=O)O)CCN(CC(=O)O)CCN(CC(=O)O)CC3)C(=O)N2)NC(=O)[C@H](Cc2c[nH]c3ccccc23)NC(=O)[C@H]([C@@H](C)O)NC1=O [3BP-4488] ({DOTA}-DCE[dP]D[Phe(3-NHCO(CH2)3SO2NH2)]LTW[Dap]C-NH2; lactam 1-10; linker 2-11 via mXylylene) | A (t1/2>15.0 minutes) | < 0.01 µM | < 0.01 µM |  | 
CC(C)C[C@@H]1NC(=O)[C@H](Cc2c[nH]c3ccccc23)NC(=O)[C@H](CC(=O)O)NC(=O)[C@H]2CCCN2C(=O)[C@H](CCC(=O)O)NC(=O)[C@@H](NC(=O)[C@H](Cc2ccc(O)cc2)NC(=O)[C@@H](NC(=O)CN2CCC(NC(=O)CN3CCN(CC(=O)O)CCN(CC(=O)O)CCN(CC(=O)O)CC3)CC2)C(C)C)CSCc2cccc(c2)CSC[C@@H](C(N)=O)NC(=O)[C@H](CO)NC(=O)[C@H](Cc2c[nH]c3ccccc23)NC(=O)[C@H](CCC(=O)NC[C@H](O)[C@@H](O)[C@H](O)[C@H](O)CO)NC1=O [3BP-4121] ({DOTA}-[X2]VYCE[dP]DWLE(NH(1-deoxy-D-glucityl))WSC-NH2; linker 4-13 via mXylylene) | A (t1/2>15.0 minutes) | < 0.01 µM |  | < 0.01 µM | 
CC(C)[C@H](NC(=O)CN1CCC(NC(=O)CN2CCN(CC(=O)O)CCN(CC(=O)O)CCN(CC(=O)O)CC2)CC1)C(=O)N[C@@H](Cc1ccc(O)cc1)C(=O)N[C@H]1CSCc2cccc(c2)CSC[C@@H](C(N)=O)NC(=O)[C@H](CO)NC(=O)[C@H](Cc2c[nH]c3ccccc23)NC(=O)[C@H]([C@@H](C)O)NC(=O)C2(CCCC2)NC(=O)[C@H](Cc2c[nH]c3ccccc23)NC(=O)[C@H](CC(=O)O)NC(=O)[C@H]2CCCN2C(=O)[C@H](CCC(=O)O)NC1=O [3BP-3587] ({DOTA}-[X2]VYCE[dP]DW[Ac5c]TWSC-NH2; linker 4-13 via mXylylene) | C (t1/2 between 2.1 and 5.0 minutes) | < 0.01 µM |  |  | < 0.01 µM
CC(C)C[C@@H]1NC(=O)[C@H](Cc2ccc(NC(=O)c3cc(S(N)(=O)=O)co3)cc2)NC(=O)[C@H](CC(=O)O)NC(=O)[C@H]2CCCN2C(=O)[C@H](CCC(=O)O)NC(=O)[C@@H](NC(=O)[C@H](CCC(N)=O)NC(=O)CN2CCN(C(=O)CN3CCN(CC(=O)O)CCN(CC(=O)O)CCN(CC(=O)O)CC3)CC2)CSCc2cccc(c2)CSC[C@@H](C(N)=O)NC(=O)[C@H](CO)NC(=O)[C@H](Cc2c[nH]c3ccccc23)NC(=O)[C@H]([C@@H](C)O)NC1=O [3BP-4813] ({DOTA}-[X1]QCE[dP]D[Phe(4-NH2)](X31)LTWSC-NH2; linker 3-12 via mXylylene) | C (t1/2 between 2.1 and 5.0 minutes) | 0.01 to 0.0794 µM |  | 0.01 to 0.0794 µM | 
CC(C)C[C@@H]1NC(=O)[C@H](Cc2c[nH]c3ccccc23)NC(=O)[C@H](CC(=O)O)NC(=O)[C@H]2CCCN2C(=O)[C@H](CCC(=O)O)NC(=O)[C@@H](NC(=O)[C@H](Cc2ccc(O)cc2)NC(=O)COCCOCCNC(=O)CN2CCN(CC(=O)O)CCN(CC(=O)O)CCN(CC(=O)O)CC2)CSCc2cccc(c2)CSC[C@@H](C(N)=O)NC(=O)[C@H](CO)NC(=O)[C@H](Cc2c[nH]c3ccccc23)NC(=O)[C@H]([C@@H](C)O)NC1=O [3BP-3869] ({DOTA-AEEA}-YCE[dP]DWLTWSC-NH2; linker 2-11 via mXylylene) | C (t1/2 between 2.1 and 5.0 minutes) | 0.01 to 0.0794 µM |  |  | < 0.01 µM
CC(C)C[C@@H]1NC(=O)C(Cc2cn(C)c3ccccc23)NC(=O)[C@H](CC(=O)O)NC(=O)[C@H]2CCCN2C(=O)[C@H](CCC(=O)O)NC(=O)[C@@H](NC(=O)[C@H](Cc2ccc(O)cc2)NC(=O)[C@@H](NC(=O)CN2CCC(NC(=O)CN3CCN(CC(=O)O)CCN(CC(=O)O)CCN(CC(=O)O)CC3)CC2)C(C)C)CSCc2cccc(c2)CSC[C@@H](C(N)=O)NC(=O)[C@H](CO)NC(=O)[C@H](Cc2c[nH]c3ccccc23)NC(=O)[C@H]([C@@H](C)O)NC1=O (some centres unmarked) [3BP-4144] ({DOTA}-[X2]VYCE[dP]D[ξTrp(1-Me)]LTWSC-NH2; linker 4-13 via mXylylene) | B (t1/2 between 5.1 and 15.0 minutes) | < 0.01 µM |  | < 0.01 µM | 
